The values that follow come from patent publication US5530097A, “Human cancer inhibitory peptide amides” (Arizona Board of Regents acting on behalf of Arizona State …, priority 1994, dated 1996).

Assay [1] has as its system MX-1 Human Mammary Xenograft. The experiment in a line: Experimental anticancer activity in murine in vivo systems (Tumor Regression). Particulars: MX-1 (Tumor Regression).
Another assay has as its system PS-388. The experiment in a line: PS-388 mouse leukemia cell line test. In kind it is cell-based. Particulars: Mouse Leukemia PS-388. Here is the method:
(§1) ED50 (P388) and GI50 (HTCL) identify the drug dose which reduces the percent tumor/cell growth to 50%. There is no mathematical difference between ED50 and GI50, both of which are calculated using the same formula. The only difference is historical usage.
(§2) Each drug is tested at five (5) doses: 100--10-1-0.1--0.01 μg/mL. Percent Growths are calculated for each dose. The two (or three) doses with growth values above, below, (or near to) 50% growth are used to calculate the ED50 /GI50 values using a linear regression computation. If no dose yields a growth value under 50%, the results are expressed as: ED50 >(highest dose). If no dose yields growth higher than 50% growth, then ED50 <(lowest dose). Similar calculations are performed for the TGI at 0% growth, and at -50% growth for the LC50.
(§3) At the start of each experiment, cells from the in vitro cell cultures are inoculated into the appropriate tubes or microtiter plates. One set of control tubes/plates is immediately counted to determine the number of cells at the start of the experiment. This is the "baseline count", or "Tzero reading". At the end of the experiment (48 hrs later), a second set of control tubes/plates is analyzed to determine the "Control Growth" value. The growth (or death) of cells relative to the initial quantity of cells is used to define the "Percent of Growth."
(§4) Similarly, the compounds disclosed herein have also been tested against an NCI in vitro mini panel. For each of six cell lines GI50, TGI, and LC50 amounts were calculated for each compound. Each compound was also tested against the PS-388 cell line and for this test an ED50 was calculated.
(§5) The protocols followed, for the NCI minipanel are, except for the number of cell lines, those established by M. R. Boyd Ph.D., and well known to those of ordinary skill in the art. The procedure followed for the test against PS-388 Leukemia is the same that was followed in the superseded NCI P-388 screening test, which is also well known to those having ordinary skill in the art.

A further assay concerns KM20L2. The experiment in a line: NCI in vitro mini panel, human cancer cell line growth inhibition. In kind it is cell-based. The note with it: Colon KM20L2, 48 hrs. The procedure:
as §1
(§6) TGI, means "Total Growth Inhibition", and identifies the drug dose needed to yield zero percent growth, i.e. there are just as many cells at the end of the experiment as were present at the beginning. Whether just as many cells were killed as were produced (steady state), or no growth occurred (total inhibition) cannot be distinguished.
(§7) LC50, means "Lethal Concentration 50%", and identifies the drug concentration which reduces to one-half of the cells originally present at the beginning of the experiment.
as §2, §3, §4, §5

The subject of a further assay is OVCAR-3. The description is as above. The format is cell-based. Particulars: Ovarian OVCAR-3, 48 hrs. Here is the method: as §1, §6, §7, §2, §3, §4, §5
The next assay concerns SK-MEL-5. The description is as above. In kind it is cell-based. The note with it: Melanoma SK-MEL-5, 48 hrs. Here is the method:
as §1, §6, §7, §2, §3, §4, §5

The next assay deals with A498. The description is as above. In kind it is cell-based. The note with it: Renal A498, 48 hrs. The procedure:
as §1, §6, §7, §2, §3, §4, §5

For a further assay, the system named is SF-295. The description is as above. The format is cell-based. Particulars: CNS SF-295, 48 hrs. Here is the method: as §1, §6, §7, §2, §3, §4, §5
A further assay relates to NCI-H460. The assay is described as above. In kind it is cell-based. The note with it: Lung-NSC NCI-H460, 48 hrs. The procedure: as §1, §6, §7, §2, §3, §4, §5

As for Dolastatin 10, the T/C in assay [1] (6.25 μg/kg) is on record as 69; in assay [1] (13 μg/kg), 61; in assay [1] (26 μg/kg) it was 50; in assay [1] (52 μg/kg), 14.
For orientation: TGI means the concentration at which net growth stops. Higher therefore signals lower sensitivity of the cells. In turn, “L-Dolavalyl-L-Leucyl-N-methyl-(3R,4S,5S)-Dolaisoleuinyl-(2R,3R,4S)-Dolaproinyl-L-Methionine N-3-quinolinamide [8g]” had an ED-50 in the assay with PS-388 of 0.000271 µg/mL. The GI-50 in the assay with KM20L2 is 0.000019 µg/mL; with OVCAR-3, below 0.000006 µg/mL; in the assay with SK-MEL-5, below 0.000006 µg/mL; with A498, 0.00026 µg/mL; with SF-295, 0.00041 µg/mL; in the assay with NCI-H460, 0.00032 µg/mL. Also, the LC-50 in the assay with KM20L2, with OVCAR-3, in the assay on SK-MEL-5, in the assay with A498, in the assay on SF-295 and in the assay with NCI-H460 was above 0.01 µg/mL throughout. In addition, the TGI in the assay with KM20L2 is 1.2 ng/mL; in the assay with OVCAR-3, 1 ng/mL; with SK-MEL-5, above 10 ng/mL; with A498 it was above 10 ng/mL; in the assay on SF-295, above 10 ng/mL; in the assay on NCI-H460, 1.2 ng/mL.
